Results as given in PubChem BioAssay AID248 (DTP/NCI, 2004).
“And” between values parts separate entries of the source, which are not always exact repeats. Equal entries are not always repeated. Inconclusive results and toxic doses are left out. Rule as the data show it: active = T/C of 150% or more; inactive = T/C below 125%.

System: L1210 leukemia ip in BDF1 mice, survival T/C
Assay: NCI In Vivo Anticancer Drug Screen. Data for tumor model L1210 Leukemia (intraperitoneal) in B6D2F1 (BDF1) mice
Settings: higher = longer survival
Outline: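 Transplantable tumor model; survival measured in treated vs vehicle control mice. Value = treated/control.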

[1] = endpoint: mean survival time, dose: 25.0 mg/kg/injection, schedule: Q01DX009 (ip), vehicle: saline
[2] = endpoint: mean survival time, dose: 50.0 mg/kg/injection, schedule: Q01DX009 (ip), vehicle: saline
[3] = endpoint: mean survival time, dose: 100.0 mg/kg/injection, schedule: Q01DX009 (ip), vehicle: saline
[4] = endpoint: mean survival time, dose: 200.0 mg/kg/injection, schedule: Q01DX009 (ip), vehicle: saline
[5] = endpoint: mean survival time, dose: 400.0 mg/kg/injection, schedule: Q01DX009 (ip), vehicle: saline
[6] = endpoint: mean survival time, dose: 100.0 mg/kg/injection, schedule: Q04DX003 (ip), vehicle: saline
[7] = endpoint: mean survival time, dose: 200.0 mg/kg/injection, schedule: Q04DX003 (ip), vehicle: saline
[8] = endpoint: mean survival time, dose: 400.0 mg/kg/injection, schedule: Q04DX003 (ip), vehicle: saline
[9] = endpoint: mean survival time, dose: 100.0 mg/kg/injection, schedule: Q01DX009 (ip), vehicle: saline with Tween-80
[10] = endpoint: mean survival time, dose: 200.0 mg/kg/injection, schedule: Q01DX009 (ip), vehicle: saline with Tween-80
[11] = endpoint: mean survival time, dose: 100.0 mg/kg/injection, schedule: Q04DX003 (ip), vehicle: saline with Tween-80
[12] = endpoint: mean survival time, dose: 200.0 mg/kg/injection, schedule: Q04DX003 (ip), vehicle: saline with Tween-80
[13] = endpoint: mean survival time, dose: 100.0 mg/kg/injection, schedule: Q01DX009 (ip), vehicle: Klucel (hydroxypropylcellulose) (HPC)
[14] = endpoint: mean survival time, dose: 100.0 mg/kg/injection, schedule: Q04DX003 (ip), vehicle: Klucel (hydroxypropylcellulose) (HPC)
[15] = endpoint: mean survival time, dose: 200.0 mg/kg/injection, schedule: Q01DX009 (ip), vehicle: Klucel (hydroxypropylcellulose) (HPC)
[16] = endpoint: mean survival time, dose: 200.0 mg/kg/injection, schedule: Q04DX003 (ip), vehicle: Klucel (hydroxypropylcellulose) (HPC)
[17] = endpoint: mean survival time, dose: 400.0 mg/kg/injection, schedule: Q01DX009 (ip), vehicle: Klucel (hydroxypropylcellulose) (HPC)
[18] = endpoint: mean survival time, dose: 400.0 mg/kg/injection, schedule: Q04DX003 (ip), vehicle: Klucel (hydroxypropylcellulose) (HPC)
[19] = endpoint: mean survival time, dose: 25.0 mg/kg/injection, schedule: Q01DX009 (ip), vehicle: Klucel (hydroxypropylcellulose) (HPC)
[20] = endpoint: mean survival time, dose: 25.0 mg/kg/injection, schedule: Q04DX003 (ip), vehicle: Klucel (hydroxypropylcellulose) (HPC)
[21] = endpoint: mean survival time, dose: 50.0 mg/kg/injection, schedule: Q01DX009 (ip), vehicle: Klucel (hydroxypropylcellulose) (HPC)
[22] = endpoint: mean survival time, dose: 50.0 mg/kg/injection, schedule: Q04DX003 (ip), vehicle: Klucel (hydroxypropylcellulose) (HPC)
[23] = endpoint: mean survival time, dose: 200.0 mg/kg/injection, schedule: Q01DX001 (ip), vehicle: carboxymethylcellulose (CMC)
[24] = endpoint: mean survival time, dose: 400.0 mg/kg/injection, schedule: Q01DX001 (ip), vehicle: carboxymethylcellulose (CMC)
[25] = endpoint: mean survival time, dose: 100.0 mg/kg/injection, schedule: Q01DX001 (ip), vehicle: carboxymethylcellulose (CMC)
[26] = endpoint: mean survival time, dose: 50.0 mg/kg/injection, schedule: Q01DX009 (ip), vehicle: saline with Tween-80
[27] = endpoint: mean survival time, dose: 100.0 mg/kg/injection, schedule: Q04DX002 (ip), vehicle: Klucel (hydroxypropylcellulose) (HPC)
[28] = endpoint: mean survival time, dose: 200.0 mg/kg/injection, schedule: Q04DX002 (ip), vehicle: Klucel (hydroxypropylcellulose) (HPC)
[29] = endpoint: mean survival time, dose: 400.0 mg/kg/injection, schedule: Q04DX002 (ip), vehicle: Klucel (hydroxypropylcellulose) (HPC)

Measured: T/C

O=C1NC(O)CCN1C1OC(CO)C(O)C1O (stereo unspecified)
inactive: [1] 101 % of control | [2] 113 % of control | endpoint: mean survival time, dose: 50.0 mg/kg/injection, schedule: Q01DX015 (ip), vehicle: saline 98 % of control | [3] 95 % of control | endpoint: mean survival time, dose: 100.0 mg/kg/injection, schedule: Q01DX015 (ip), vehicle: saline 94 % of control | [4] 110 % of control | [5] 90 % of control | endpoint: mean survival time, dose: 800.0 mg/kg/injection, schedule: Q01DX009 (ip), vehicle: saline 95 % of control | endpoint: median survival time, dose: 500.0 mg/kg/injection, schedule: Q01DX009 (ip), vehicle: saline 102 % of control | endpoint: median survival time, dose: 1000.0 mg/kg/injection, schedule: Q01DX009 (ip), vehicle: saline 94 % of control | endpoint: median survival time, dose: 2000.0 mg/kg/injection, schedule: Q01DX009 (ip), vehicle: saline 93 % of control

COc1ccc(/C=C2\N=C(c3ccccc3)OC2=O)cc1
inactive: endpoint: mean survival time, dose: 100.0 mg/kg/injection, schedule: Q01DX001 (ip), vehicle: saline 94 % of control | [6] 98 % of control | endpoint: mean survival time, dose: 200.0 mg/kg/injection, schedule: Q01DX001 (ip), vehicle: saline 95 % of control | [7] 93 % of control | endpoint: mean survival time, dose: 400.0 mg/kg/injection, schedule: Q01DX001 (ip), vehicle: saline 94 % of control | [8] 93 % of control

CSc1cc(N)cc(C(=O)O)c1O
inactive: [9] 92 % of control | [10] 89 % of control | endpoint: mean survival time, dose: 400.0 mg/kg/injection, schedule: Q01DX009 (ip), vehicle: saline with Tween-80 88 % of control

c1ccc(NC(Nc2ccccn2)c2ccncc2)nc1
inactive: [11] 104 % of control | [12] 111 % of control

CCOC(=O)CS(=O)c1c([N+](=O)[O-])ncn1C (stereo unspecified)
inactive: endpoint: mean survival time, dose: 6.25 mg/kg/injection, schedule: Q01DX009 (ip), vehicle: saline with Tween-80 97 % of control | endpoint: mean survival time, dose: 12.5 mg/kg/injection, schedule: Q01DX009 (ip), vehicle: saline with Tween-80 94 % of control | endpoint: mean survival time, dose: 25.0 mg/kg/injection, schedule: Q01DX009 (ip), vehicle: saline with Tween-80 103 % of control

CCCCCCCCCCNC(C)=O
inactive: [13] 104 % of control | [14] 109 % of control | [15] 106 % of control | [16] 96 % of control | [17] 89 % of control | [18] 102 % of control

C=CCNC(=S)Nc1cc(Cl)ccc1C
inactive: [13] 90 % of control | [14] 92 % of control | [15] 86 % of control | [16] 100 % of control | [18] 95 % of control

O=C(NCNC(=O)c1ccccc1)c1ccccc1
inactive: [14] 100 % of control | [15] 103 % of control | [16] 90 % of control | [17] 92 % of control | [18] 103 % of control

CCN(CC)C(=S)SSC(=S)N(CC)CC
inactive: [19] 100 % of control | [20] 93 % of control | [21] 100 % of control | [22] 93 % of control | [13] 91 % of control | [14] 96 % of control and 98 % of control | [15] 98 % of control and 101 % of control | [16] 88 % of control and 91 % of control | [17] 96 % of control and 100 % of control | [18] 93 % of control and 96 % of control

CC(N)(Cc1ccc(O)c(O)c1)C(=O)O (stereo unspecified)
inactive: [1] 109 % of control | endpoint: mean survival time, dose: 25.0 mg/kg/injection, schedule: Q04DX003 (ip), vehicle: saline 103 % of control | [2] 101 % of control | endpoint: mean survival time, dose: 50.0 mg/kg/injection, schedule: Q04DX003 (ip), vehicle: saline 95 % of control | [3] 105 % of control | [6] 103 % of control | [4] 111 % of control | [7] 106 % of control | [5] 117 % of control | [8] 103 % of control

CCOC(=O)/C(Br)=C/SCCN
inactive: [3] 97 % of control | [4] 92 % of control | [5] 91 % of control

O=[N+]([O-])C(Br)(c1ccccc1)S(=O)(=O)Cc1ccccc1 (stereo unspecified)
inactive: [13] 95 % of control | [14] 100 % of control | [15] 101 % of control | [16] 95 % of control | [18] 102 % of control

CCCCC(=O)N/N=C/c1ccccc1[N+](=O)[O-]
inactive: [23] 95 % of control | [24] 90 % of control

N#CN1CCOCC1
inactive: endpoint: mean survival time, dose: 44.0 mg/kg/injection, schedule: Q01DX Z (ip), vehicle: saline 101 % of control | endpoint: mean survival time, dose: 66.0 mg/kg/injection, schedule: Q01DX Z (ip), vehicle: saline 91 % of control | [3] 97 % of control | endpoint: mean survival time, dose: 100.0 mg/kg/injection, schedule: Q01DX Z (ip), vehicle: saline 101 % of control | [6] 95 % of control | [4] 103 % of control | [7] 105 % of control

CC(=O)/C=C(\C)OC1CCCCC1
inactive: [11] 98 % of control | [12] 95 % of control | endpoint: mean survival time, dose: 400.0 mg/kg/injection, schedule: Q04DX003 (ip), vehicle: saline with Tween-80 91 % of control

Cc1ccc2cccnc2c1
inactive: [25] 93 % of control | [23] 93 % of control | [24] 86 % of control

COc1c(N)ccc(-c2ccc(N)c(OC)c2Cl)c1Cl
inactive: endpoint: mean survival time, dose: 75.0 mg/kg/injection, schedule: Q04DX003 (ip), vehicle: saline with Tween-80 94 % of control

CC(C)=CCc1ccc(Cl)cc1
inactive: [26] 94 % of control | [9] 105 % of control | [10] 102 % of control

COC(=O)NS(=O)(=O)/C=C\n1c2ccccc2c2ccccc21
inactive: endpoint: mean survival time, dose: 75.0 mg/kg/injection, schedule: Q01DX009 (ip), vehicle: Klucel (hydroxypropylcellulose) (HPC) 98 % of control | endpoint: mean survival time, dose: 150.0 mg/kg/injection, schedule: Q01DX009 (ip), vehicle: Klucel (hydroxypropylcellulose) (HPC) 109 % of control

O=C(O)C1CCC[N-]C1.O=C(O)C1CCC[N-]C1.O=C(O)C1CCC[N-]C1.O=C(O)C1CCC[N-]C1.[Cl][Rh][Cl] (stereo unspecified)
inactive: [3] 104 % of control | [6] 96 % of control | [4] 104 % of control | [7] 102 % of control | [5] 90 % of control | [8] 96 % of control

COCC(O)CC#N (stereo unspecified)
inactive: [3] 117 % of control | [4] 113 % of control | [5] 111 % of control

CC1=C/C(=N\NC(N)=O)CCC1
inactive: [27] 97 % of control | [28] 86 % of control | [29] 105 % of control

CN(C)C(=O)CCCc1ccc(N(CCCl)CCCl)cc1
inactive: endpoint: mean survival time, dose: 4.0 mg/kg/injection, schedule: Q12HX018 (ip), vehicle: other 108 % of control | endpoint: mean survival time, dose: 6.0 mg/kg/injection, schedule: Q12HX018 (ip), vehicle: other 97 % of control | endpoint: mean survival time, dose: 8.0 mg/kg/injection, schedule: Q12HX018 (ip), vehicle: other 103 % of control | [25] 123 % of control | [23] 118 % of control | [24] 103 % of control

CC1(C)NC(=O)C(/C=C/c2ccccc2)O1 (stereo unspecified)
inactive: [19] 102 % of control | [20] 97 % of control | [21] 100 % of control | [22] 95 % of control | [13] 89 % of control | [14] 97 % of control | [16] 92 % of control | [18] 101 % of control

COc1cc(/C=N/NC(=O)C[n+]2ccccc2)cc(OC)c1
inactive: [1] 119 % of control | [2] 103 % of control | [3] 116 % of control | [6] 96 % of control

Cc1cccc(NC(=O)CCl)c1C
inactive: [13] 100 % of control | [14] 100 % of control | [15] 87 % of control | [16] 100 % of control

CCCCCCCCCCCCCCCCCCNC(=O)N1CCC(C)CC1
inactive: [27] 97 % of control | [28] 100 % of control | [29] 97 % of control

COC(=O)CCC(NC(=O)c1cccc(N(C)C=O)c1)C(=O)OC (stereo unspecified)
inactive: [26] 97 % of control | [9] 95 % of control | [10] 105 % of control

CCOC(=O)c1c(C)[nH]c(-c2ccccc2)c1C
inactive: [13] 109 % of control | [14] 102 % of control | [15] 97 % of control | [16] 100 % of control | [17] 95 % of control | [18] 94 % of control
